Reference: patent publication EP1640359A2, “Anticonvulsant and central nervous system-active bis(fluorophenyl)alkylamides” (NPS PHARMACEUTICALS, INC., priority 1997, dated 1999)

Test system: normal anesthetized rats
Experiment: Flexor reflex in normal anesthetized rats (spasticity model)
Assay type: in vivo
Settings: in comparison to baclofen, Figure 3 legend only, no numbers given
Description: Baclofen, diazepam (Valium), and tizanidine are effective on different parameters of spasticity (EMG recordings, H-reflex, the H/M ratio, mono- and polysynaptic reflexes, clonus, hyperreflexia) in these models. The flexor reflex is a polysynaptic response elicited by stimulation of the bottom of the foot and models the withdrawal reflex.

For `NC(=O)CC(c1cccc(F)c1)c1cccc(F)c1` [Compound 1, 3,3-bis(3-fluorophenyl)propanamide], the “reduction in the flexor reflex” value was “reduction in the flexor reflex”.
